{"source": "patent US20090131351A1", "about": "“Methods, compositions, and kits for modulating tumor cell proliferation” (Antisoma Research Limited, priority 2007, published 2009)", "key": {"[1]": {"test_system": "MV4-11 cells (AML cell line)", "assay": "Sulphorhodamine B assay, MV4-11 cells", "assay_type": "cell-based, human", "settings": "6 days", "procedure": "1 μM AS1411 was added with varying concentrations of cytarabine (0.002 to 1.5 μM) and cells were incubated for 6 days. A control was run with the 1 μM AS1411 without cytarabine. A second control series was run with the varying amounts of cytarabine but with no AS1411 present.\nThe remaining cell mass after exposure to AS1411 was measured with a spectrophotometer and IC50 determined."}, "AML cell line": {"test_system": "AML cell line", "assay": "Apoptosis, caspase, DNA fragmentation, PS externalization and cell cycle effects of AS1411 in AML cell line", "assay_type": "cell-based", "settings": "AS1411 administered to AML cell line"}, "KG-1 (AML cell line)": {"test_system": "KG-1 (AML cell line)", "assay": "Sulphorhodamine B assay, KG-1 cells", "assay_type": "cell-based", "settings": "6 days, SRB", "procedure": "(§1) MV4-11 cells (AML cell line available and obtained from ATCC under catalogue number CRL-9591) were seeded in wells of a 96-well plate at a number optimised for each cell line. 1 μM AS1411 was added with varying concentrations of cytarabine (0.002 to 1.5 μM) and cells were incubated for 6 days. A control was run with the 1 μM AS1411 without cytarabine. A second control series was run with the varying amounts of cytarabine but with no AS1411 present.\n(§2) Cells were then washed, fixed to the 96-well plate and exposed to the dye Sulphorhodamine B (SRB; available from Sigma-Aldrich, Dorset, UK; catalogue number S-1402). The remaining cell mass after exposure to AS1411 was measured with a spectrophotometer and IC50 determined.\n(§3) Multiple haematological cancer cell lines were exposed to varying concentrations of AS1411 over a period of 6 days according to the Sulphorhodamine B assay described in Example 1. […] (See FIG. 2). […] Normal fibroblast and B cells were however unaffected by similar concentrations of AS1411."}, "HL-60 (AML cell line)": {"test_system": "HL-60 (AML cell line)", "assay": "Sulphorhodamine B assay, HL-60 cells", "assay_type": "cell-based", "settings": "6 days, SRB", "procedure": "as §1, §2, §3"}, "DU-145": {"test_system": "DU-145", "assay": "Tumor cell line sensitivity to AS1411", "assay_type": "cell-based"}, "PC3": {"test_system": "PC3", "assay": "Tumor cell line sensitivity to AS1411", "assay_type": "cell-based"}, "A549": {"test_system": "A549", "assay": "Tumor cell line sensitivity to AS1411", "assay_type": "cell-based"}, "CALU06": {"test_system": "CALU06", "assay": "Tumor cell line sensitivity to AS1411", "assay_type": "cell-based"}, "LS174T": {"test_system": "LS174T", "assay": "Tumor cell line sensitivity to AS1411", "assay_type": "cell-based"}, "HT-29": {"test_system": "HT-29", "assay": "Tumor cell line sensitivity to AS1411", "assay_type": "cell-based"}, "MCF-7": {"test_system": "MCF-7", "assay": "Tumor cell line sensitivity to AS1411", "assay_type": "cell-based"}, "ZR75-1": {"test_system": "ZR75-1", "assay": "Tumor cell line sensitivity to AS1411", "assay_type": "cell-based"}, "HGC.27": {"test_system": "HGC.27", "assay": "Tumor cell line sensitivity to AS1411", "assay_type": "cell-based"}, "KATO III": {"test_system": "KATO III", "assay": "Tumor cell line sensitivity to AS1411", "assay_type": "cell-based"}, "A498": {"test_system": "A498", "assay": "Tumor cell line sensitivity to AS1411", "assay_type": "cell-based"}, "PANC-1": {"test_system": "PANC-1", "assay": "Tumor cell line sensitivity to AS1411", "assay_type": "cell-based"}, "SKOV-3": {"test_system": "SKOV-3", "assay": "Tumor cell line sensitivity to AS1411", "assay_type": "cell-based"}, "U87-MG": {"test_system": "U87-MG", "assay": "Tumor cell line sensitivity to AS1411", "assay_type": "cell-based"}, "SK-MEL-28": {"test_system": "SK-MEL-28", "assay": "Tumor cell line sensitivity to AS1411", "assay_type": "cell-based"}, "B cells": {"test_system": "B cells", "assay": "Effect of AS1411 on normal cells", "assay_type": "cell-based", "settings": "similar concentrations of AS1411", "description": "as §3"}, "Normal fibroblast": {"test_system": "Normal fibroblast", "assay": "Effect of AS1411 on normal cells", "assay_type": "cell-based", "settings": "similar concentrations of AS1411", "description": "as §3"}, "[2]": {"test_system": "human AML cell line MV4-11 xenografts", "assay": "Combination therapy in a xenograft mouse model", "assay_type": "in vivo, nu/nu MF1 mouse", "settings": "for Fractional Tumor Volume (FTV) relative to untreated controls: single agent; for Average volume of tumors at 7 days post-treatment (tumor volume change): group average, Cytarabine 80 mg/kg/daily i.p.; for Average volume of tumors at 7 days post-treatment (tumor volume change) / Volume of individual tumors at 7 days post-treatment (indicating tumor volume change): day 7, AS1411 40 mg/kg/day s.c. minipump; for Volume of individual tumors at 7 days post-treatment (indicating tumor volume change): individual mice, Cytarabine 80 mg/kg/daily i.p. 5 days", "procedure": "The nu/nu MF1 mouse strain has been used previously at these laboratories and background data are available. A total of 50 female MF1 mice were obtained from the Biological Research Facility, SGHMS, London) in a weight range of 5 to 6 weeks of age (nominally 23-28 g). Mice were individually identified using a subcutaneously implanted microchip.\nThe xenografts were prepared from the human AML cell line MV4-11 (DSMZ Number: CCL-102). Cells were grown in accordance with Standard Operating Procedures (SOP) and established methodology; suitable methods are known in the art. Cells were suspended at 2.0×10^8 cells/ml in ice-cold PBS, mixed 1:1 with ice-cold Matrigel™ Matrix (BD Biosciences, Lot 61459) and kept on ice until the time of injection into animals. Mice were injected subcutaneously with 100 μl cell suspension on the right flank.\nAnimals were checked regularly until visible tumors appeared. Tumors were measured in accordance with the relevant SOP twice per week and tumor volume calculated using the formula: Volume=(π÷6000)×(Tumor Length×Tumor Width×Tumor Height).\nMeasurements commenced approximately one week before the day of treatment when the xenograft had reached a volume of >0.03 cm^3.\nOnce the tumors were established, mice were allocated into groups using a randomisation procedure based on stratified xenograft volume. Measurements were recorded electronically using electronic calipers and the Trojan system for data capture.\nDay 0 is defined as the day on which the average tumor volume is between 0.07 to 0.08 cm^3. Relative tumor volume on Day 0 is defined as 1.\nAS1411 (manufactured by Avecia, UK, batch number: AQV-07H-005; expiry date 02/2009) was given by continuous infusion using ALZET mini-osmotic pumps (Durect Corp. CA, USA). The mini-pumps were implanted subcutaneously on days 0 on the left flank of mice (opposite to the tumor location). Mice received a dose of 40 mg/kg/day with a dose-volume of 1 μl/h lasting for 7 days. The minipumps were then removed and a second drug-loaded minipump implantation in the same location to last a further 7 days.\nThe intraperitoneal route of administration of Cytarabine was selected. Mice were administered with Cytarabine (DBL, Australia; batch number: TO11966AA; expiry date 02/2009) at 80 mg/kg/daily for 5 consecutive days with a dose-volume of 8 μl/g body weight starting on day 0. After 2 days gap a second cycle of a similar 5-day dosing was initiated on day 7. Control mice were untreated.\nMice (n=10) were allocated to groups as follows: • Untreated controls • Cytarabine alone • AS1411 alone • Cytarabine+AS1411\nThe Fractional Product method was used to analyse the combination therapy (Yokohama et al., 2000, Cancer Res., 60:2190-6). According to this method, the effects of two drugs, when combined, can be calculated by multiplying the fractional tumor volume (treated volume/control volume on a given day) by each single drug. If the effect of the drugs acting simultaneously is equal to or larger than that calculated, it would be assumed that additivity, or synergism, respectively, has occurred.\n[Mean tumor volume test]/[Mean tumor volume control]\n[Mean FTV of […]]×[Mean FTV of AS1411]\n[Expected FTV]/[Observed FTV]\nA combination therapy index R>1.0 indicates a synergistic effect.\nA combination therapy index R<1.0 indicates a less than additive effect."}}, "note": "“And” between values parts separate entries of the source, which are not always exact repeats. Identical values can stand only once.", "data": [{"compound": "5′-GGTGGTGGTGGTTGTGGTGG TGGTGG-3′ [AS1411]", "values": [{"measurement": "IC50", "setting": "[1]; AS1411 alone, SRB", "value": "low"}, {"measurement": "DNA fragmentation", "setting": "AML cell line", "value": "dose-dependent increase"}, {"measurement": "PS externalization", "setting": "AML cell line", "value": "increase"}, {"measurement": "apoptosis", "setting": "AML cell line", "value": "induction"}, {"measurement": "caspase activity", "setting": "AML cell line", "value": "increase"}, {"measurement": "cell cycle effect in tumor cells", "setting": "AML cell line", "value": "arrest at the S-phase"}, {"measurement": "IC50", "setting": "KG-1 (AML cell line)", "value": "low"}, {"measurement": "IC50", "setting": "HL-60 (AML cell line)", "value": "low"}, {"measurement": "sensitivity to AS1411", "setting": "DU-145", "value": "sensitivity"}, {"measurement": "sensitivity to AS1411", "setting": "PC3", "value": "sensitivity"}, {"measurement": "sensitivity to AS1411", "setting": "A549", "value": "sensitivity"}, {"measurement": "sensitivity to AS1411", "setting": "CALU06", "value": "sensitivity"}, {"measurement": "sensitivity to AS1411", "setting": "LS174T", "value": "sensitivity"}, {"measurement": "sensitivity to AS1411", "setting": "HT-29", "value": "sensitivity"}, {"measurement": "sensitivity to AS1411", "setting": "MCF-7", "value": "sensitivity"}, {"measurement": "sensitivity to AS1411", "setting": "ZR75-1", "value": "sensitivity"}, {"measurement": "sensitivity to AS1411", "setting": "HGC.27", "value": "sensitivity"}, {"measurement": "sensitivity to AS1411", "setting": "KATO III", "value": "sensitivity"}, {"measurement": "sensitivity to AS1411", "setting": "A498", "value": "sensitivity"}, {"measurement": "sensitivity to AS1411", "setting": "PANC-1", "value": "sensitivity"}, {"measurement": "sensitivity to AS1411", "setting": "SKOV-3", "value": "sensitivity"}, {"measurement": "sensitivity to AS1411", "setting": "U87-MG", "value": "sensitivity"}, {"measurement": "sensitivity to AS1411", "setting": "SK-MEL-28", "value": "sensitivity"}, {"measurement": "effect on normal cells", "setting": "B cells", "value": "unaffected"}, {"measurement": "effect on normal cells", "setting": "Normal fibroblast", "value": "unaffected"}, {"measurement": "Relative tumor volume (relative to tumor volume at Day 0 of treatment)", "setting": "[2]; Day 0 (defined as 1)", "value": 1.000}, {"measurement": "Relative tumor volume (relative to tumor volume at Day 0 of treatment)", "setting": "[2]; Day 4", "value": 2.500}, {"measurement": "Fractional Tumor Volume (FTV) relative to untreated controls", "setting": "[2]; Day 4", "value": 0.848}, {"measurement": "Relative tumor volume (relative to tumor volume at Day 0 of treatment)", "setting": "[2]; Day 7", "value": 3.900}, {"measurement": "Fractional Tumor Volume (FTV) relative to untreated controls", "setting": "[2]; Day 7", "value": 0.915}, {"measurement": "Average volume of tumors at 7 days post-treatment (tumor volume change)", "setting": "[2]", "value": "Average = 3.9"}, {"measurement": "Volume of individual tumors at 7 days post-treatment (indicating tumor volume change)", "setting": "[2]", "value": "3.5 and 5.9 and 3.0 and 3.3 and 4.8 and 5.5 and 2.5 (2×) and 3.8 and 4.5 and 1.1"}]}, {"compound": "Nc1ccn([C@@H]2O[C@H](CO)[C@@H](O)[C@@H]2O)c(=O)n1", "note": "[Cytarabine, 1β-arabinofuranosylcytosine, reference compound]", "values": [{"measurement": "reduction of IC50 of cytarabine by combination with AS1411", "setting": "[1]; cytarabine 0.002 to 1.5 μM with 1 μM AS1411 vs cytarabine alone", "value": "more than three-fold"}, {"measurement": "Relative tumor volume (relative to tumor volume at Day 0 of treatment)", "setting": "[2]; Day 0 (defined as 1)", "value": 1.000}, {"measurement": "Relative tumor volume (relative to tumor volume at Day 0 of treatment)", "setting": "[2]; Day 4", "value": 1.900}, {"measurement": "Fractional Tumor Volume (FTV) relative to untreated controls", "setting": "[2]; Day 4", "value": 0.713}, {"measurement": "Relative tumor volume (relative to tumor volume at Day 0 of treatment)", "setting": "[2]; Day 7", "value": 3.100}, {"measurement": "Fractional Tumor Volume (FTV) relative to untreated controls", "setting": "[2]; Day 7", "value": 0.844}, {"measurement": "Average volume of tumors at 7 days post-treatment (tumor volume change)", "setting": "[2]", "value": "Average = 3.1"}, {"measurement": "Volume of individual tumors at 7 days post-treatment (indicating tumor volume change)", "setting": "[2]", "value": "7.2 and 3.5 and 2.8 and 1.5 and 2.4 (2×) and 3.4 and 2.5 and 2.2 and 1.1"}]}]}
